In PubChem BioAssay AID2060613 (Molecular Pharmacology Branch, DTP, NCI, 2025):

System: 233499-124-R-J3-PDC complex spheroid viability
Experiment: Anticancer human tumor 233499-124-R-J3-PDC patient-derived colon adenocarcinoma cell line growth inhibition [CLK]
Conditions: for IC50: curve of first compound; for viability, T/C: stronger effect = lower value
Outline: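 Patient-derived tumor cells grown as complex spheroids with HUVEC endothelial cells and mesenchymal stem cells, treated with drug combinations. Concentrations descend in half-log steps from near clinical Cmax, or from 10 microM if Cmax unknown.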

[1] = second compound 0.0316 µM, first compound 0.0316 µM
[2] = second compound 0.0316 µM, first compound 0.1 µM
[3] = second compound 0.1 µM, first compound 0.0316 µM
[4] = second compound 0.1 µM, first compound 0.1 µM
[5] = second compound 0.316 µM, first compound 0.0316 µM
[6] = second compound 0.316 µM, first compound 0.1 µM
[7] = second compound 1 µM, first compound 0.0316 µM
[8] = second compound 1 µM, first compound 0.1 µM
[9] = second compound 3.16 µM, first compound 0.0316 µM
[10] = second compound 3.16 µM, first compound 0.1 µM
[11] = second compound 10 µM, first compound 0.0316 µM
[12] = second compound 10 µM, first compound 0.1 µM
[13] = second compound 0.0316 µM, first compound 0.316 µM
[14] = second compound 0.0316 µM, first compound 1 µM
[15] = second compound 0.0316 µM, first compound 3.16 µM
[16] = second compound 0.0316 µM, first compound 10 µM
[17] = second compound 0.1 µM, first compound 0.316 µM
[18] = second compound 0.1 µM, first compound 1 µM
[19] = second compound 0.1 µM, first compound 3.16 µM
[20] = second compound 0.1 µM, first compound 10 µM
[21] = second compound 0.316 µM, first compound 0.316 µM
[22] = second compound 0.316 µM, first compound 1 µM
[23] = second compound 0.316 µM, first compound 3.16 µM
[24] = second compound 0.316 µM, first compound 10 µM
[25] = second compound 1 µM, first compound 0.316 µM
[26] = second compound 1 µM, first compound 1 µM
[27] = second compound 1 µM, first compound 3.16 µM
[28] = second compound 1 µM, first compound 10 µM
[29] = second compound 3.16 µM, first compound 0.316 µM
[30] = second compound 3.16 µM, first compound 1 µM
[31] = second compound 3.16 µM, first compound 3.16 µM
[32] = second compound 3.16 µM, first compound 10 µM
[33] = second compound 10 µM, first compound 0.316 µM
[34] = second compound 10 µM, first compound 1 µM
[35] = second compound 10 µM, first compound 3.16 µM
[36] = second compound 10 µM, first compound 10 µM
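Note: spheroids exposed to the drug combinations for seven days.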
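Throughout, for viability, T/C: percent viability relative to DMSO vehicle control wells taken as 100%.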

Work on Cn1ncnc1[C@H]1c2n[nH]c(=O)c3cc(F)cc(c23)N[C@@H]1c1ccc(F)cc1 + CN1CCN(c2cc(C(=O)Nc3cc4cc(-c5cnn(C)c5)ccc4cn3)ccn2)CC1 yielded an IC50 (second compound 0.0316 µM) of over 100 nM, an IC50 (second compound 0.1 µM) of over 100 nM and an IC50 (second compound 0.316 µM) of over 100 nM. It also gave an IC50 (second compound 1 µM) of under 0.316 nM, an IC50 (second compound 3.16 µM) of under 0.316 nM and an IC50 (second compound 10 µM) of under 0.316 nM. For the same compound, the viability, T/C (second compound 0.0316 µM, first compound 0.000316 µM) was 91.2%, the viability, T/C (second compound 0.0316 µM, first compound 0.001 µM) was 108% and the viability, T/C (second compound 0.0316 µM, first compound 0.00316 µM) was 100%. For the same compound, the viability, T/C (second compound 0.0316 µM, first compound 0.01 µM) was 110%, the viability, T/C [1] was 104% and the viability, T/C [2] was 92.7%. It also gave a viability, T/C (second compound 0.1 µM, first compound 0.000316 µM) of 100%, a viability, T/C (second compound 0.1 µM, first compound 0.001 µM) of 105% and a viability, T/C (second compound 0.1 µM, first compound 0.00316 µM) of 89.5%. It also gave a viability, T/C (second compound 0.1 µM, first compound 0.01 µM) of 97.8%, a viability, T/C [3] of 92.1% and a viability, T/C [4] of 94.4%. It also gave a viability, T/C (second compound 0.316 µM, first compound 0.000316 µM) of 85.5%, a viability, T/C (second compound 0.316 µM, first compound 0.001 µM) of 103% and a viability, T/C (second compound 0.316 µM, first compound 0.00316 µM) of 101%. It also gave a viability, T/C (second compound 0.316 µM, first compound 0.01 µM) of 89.6%, a viability, T/C [5] of 92.7% and a viability, T/C [6] of 101%. It also gave a viability, T/C (second compound 1 µM, first compound 0.000316 µM) of 19.1%, a viability, T/C (second compound 1 µM, first compound 0.001 µM) of 2.31% and a viability, T/C (second compound 1 µM, first compound 0.00316 µM) of 5.38%. For the same compound, the viability, T/C (second compound 1 µM, first compound 0.01 µM) was 1.23%, the viability, T/C [7] was 2.59% and the viability, T/C [8] was 0.76%. For the same compound, the viability, T/C (second compound 3.16 µM, first compound 0.000316 µM) was 0.59%, the viability, T/C (second compound 3.16 µM, first compound 0.001 µM) was 0.64% and the viability, T/C (second compound 3.16 µM, first compound 0.00316 µM) was 0.58%. For the same compound, the viability, T/C (second compound 3.16 µM, first compound 0.01 µM) was 0.53%, the viability, T/C [9] was 0.57% and the viability, T/C [10] was 0.46%. For the same compound, the viability, T/C (second compound 10 µM, first compound 0.000316 µM) was 0.41%, the viability, T/C (second compound 10 µM, first compound 0.001 µM) was 0.43% and the viability, T/C (second compound 10 µM, first compound 0.00316 µM) was 0.45%. For the same compound, the viability, T/C (second compound 10 µM, first compound 0.01 µM) was 0.44%, the viability, T/C [11] was 0.51% and the viability, T/C [12] was 0.56%.

Nc1ccn(C2OC(CO)C(O)C2(F)F)c(=O)n1 (stereo unspecified) + CN1CCN(c2cc(C(=O)Nc3cc4cc(-c5cnn(C)c5)ccc4cn3)ccn2)CC1 was tested, and the IC50 (second compound 0.0316 µM) was 313 nM, the IC50 (second compound 0.1 µM) was 217 nM and the IC50 (second compound 0.316 µM) was 168 nM. The IC50 (second compound 1 µM) was under 31.6 nM, the IC50 (second compound 3.16 µM) was under 31.6 nM and the IC50 (second compound 10 µM) was under 31.6 nM. For the same compound, the viability, T/C [1] was 80%, the viability, T/C [2] was 95.4% and the viability, T/C [13] was 49.6%. It also gave a viability, T/C [14] of 34.2%, a viability, T/C [15] of 37% and a viability, T/C [16] of 27.2%. For the same compound, the viability, T/C [3] was 101%, the viability, T/C [4] was 92.1% and the viability, T/C [17] was 29.6%. For the same compound, the viability, T/C [18] was 19.2%, the viability, T/C [19] was 23.2% and the viability, T/C [20] was 21.4%. The viability, T/C [5] was 101%, the viability, T/C [6] was 71% and the viability, T/C [21] was 24.7%. The viability, T/C [22] was 7.57%, the viability, T/C [23] was 12.1% and the viability, T/C [24] was 5.63%. It also gave a viability, T/C [7] of 1.31%, a viability, T/C [8] of 0.86% and a viability, T/C [25] of 0.41%. For the same compound, the viability, T/C [26] was 1.47%, the viability, T/C [27] was 0.37% and the viability, T/C [28] was 0.46%. It also gave a viability, T/C [9] of 0.7%, a viability, T/C [10] of 0.69% and a viability, T/C [29] of 0.53%. The viability, T/C [30] was 0.46%, the viability, T/C [31] was 0.48% and the viability, T/C [32] was 0.62%. The viability, T/C [11] was 0.45%, the viability, T/C [12] was 0.5% and the viability, T/C [33] was 0.68%. The viability, T/C [34] was 0.58%, the viability, T/C [35] was 0.44% and the viability, T/C [36] was 0.38%.

Compound O=c1[nH]cc(F)c(=O)[nH]1 + CN1CCN(c2cc(C(=O)Nc3cc4cc(-c5cnn(C)c5)ccc4cn3)ccn2)CC1 has an IC50 (second compound 0.0316 µM) of 850 nM, an IC50 (second compound 0.1 µM) of 952 nM and an IC50 (second compound 0.316 µM) of 844 nM. For the same compound, the IC50 (second compound 1 µM) was under 31.6 nM, the IC50 (second compound 3.16 µM) was under 31.6 nM and the IC50 (second compound 10 µM) was under 31.6 nM. The viability, T/C [1] was 93%, the viability, T/C [2] was 104% and the viability, T/C [13] was 90.8%. It also gave a viability, T/C [14] of 43.5%, a viability, T/C [15] of 28.6% and a viability, T/C [16] of 31.4%. The viability, T/C [3] was 99.8%, the viability, T/C [4] was 100% and the viability, T/C [17] was 96.8%. For the same compound, the viability, T/C [18] was 48%, the viability, T/C [19] was 28.8% and the viability, T/C [20] was 30.4%. The viability, T/C [5] was 96.3%, the viability, T/C [6] was 98.5% and the viability, T/C [21] was 96.5%. For the same compound, the viability, T/C [22] was 42%, the viability, T/C [23] was 24.6% and the viability, T/C [24] was 19.7%. The viability, T/C [7] was 1.35%, the viability, T/C [8] was 1.2% and the viability, T/C [25] was 0.92%. The viability, T/C [26] was 2.1%, the viability, T/C [27] was 0.59% and the viability, T/C [28] was 0.84%. The viability, T/C [9] was 0.5%, the viability, T/C [10] was 0.58% and the viability, T/C [29] was 1.18%. It also gave a viability, T/C [30] of 0.66%, a viability, T/C [31] of 0.53% and a viability, T/C [32] of 0.54%. It also gave a viability, T/C [11] of 0.37%, a viability, T/C [12] of 0.5% and a viability, T/C [33] of 1.31%. For the same compound, the viability, T/C [34] was 0.42%, the viability, T/C [35] was 0.41% and the viability, T/C [36] was 0.45%.
